Results published in PMC9229294, “Pyridazinones and Structurally Related Derivatives with Anti-Inflammatory Activity” (Molecules, 2022).

Tests used:
[1] = system: LPS-induced NF-κB activity in THP1-Blue cells; test: Inhibition of LPS-induced NF-κB transcriptional activity, alkaline phosphatase reporter, THP1-Blue cells; type: cell-based, human; settings: for IC50: Homo sapiens, LPS-induced NF-κB activity, human THP1-Blue cells, N.A. = no activity at 50 µM
Outline: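 THP1-Blue cells (NF-κB-inducible secreted alkaline phosphatase reporter) pretreated 30 min with compound at final 3.125–50 µM (1% DMSO), then stimulated with 250 ng/mL LPS for 24 h. Supernatant alkaline phosphatase read at 655 nm with QUANTI-Blue, relative to LPS-only controls.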

[2] = Cytotoxicity, CellTiter-Glo, MonoMac-6 cells; type: cell-based, human; settings: human, MonoMac-6 cells
Outline: (§1)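 THP1-Blue or MonoMac-6 cells were exposed for 24 h to compounds at 3.125–50 µM final (1% DMSO). Viability was read as ATP-dependent luminescence (CellTiter-Glo). IC50 came from % inhibition plotted against log concentration (at least five points).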

MonoMac-6 cells = test: Cytotoxicity, CellTiter-Glo, MonoMac-6 cells; type: cell-based, human; settings: 24 h
Outline: as §1

[3] = Cytotoxicity, CellTiter-Glo, THP1-Blue cells; type: cell-based, human; settings: human, THP1-Blue cells; N.T. = no cytotoxicity at 50 µM; read-out: Cytotoxicity IC50 in THP1-Blue Cells
Outline: as §1

[4] = system: LPS-induced IL-6 production in MonoMac-6 cells; test: Inhibition of LPS-induced IL-6 production in MonoMac-6 cells (ELISA); type: cell-based, human; settings: Homo sapiens, MONO-MAC-6, read-out: Inhibition of IL-6 Production IC50 in MonoMac-6 Cells
Outline: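 MonoMac-6 cells pretreated 30 min with compound (3.125–50 µM, 1% DMSO), then stimulated 24 h with 250 ng/mL LPS. IL-6 measured by ELISA; IC50 from percent inhibition vs log concentration, at least five points.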

[5] = system: myocardial infarction injury in mice; design: method as in PMID 19639995, PMID 32085666, PMID 28169296; settings: cited from earlier work
mouse aortas = system: mouse aortas; design: method as in PMID 19639995, PMID 32085666, PMID 28169296; settings: cited from earlier work

IC50 [1]	IC50 [4]	SMILES	Observed class for inhibition of NF-κB activity ([1]; experimentally observed, Active or N.A.)	IC50 at 24 h [2]	Cytotoxicity in MonoMac-6 cells (in words) (MonoMac-6 cells)	IC50 at 24 h [3]	Cardioprotection in myocardial infarction injury [5]	Effect of blocking FPR1 (Boc-MLF) on inhibitor activity on LPS-induced NF-κB activation ([1]; 25 μM Boc-MLF 15 min, then 5 µM compound, LPS-treated THP1 cells)	Endothelium-independent relaxation (mouse aortas)
18 ± 0.7 µM	27.5 ± 1.6 µM	Cc1cc(Cc2ccsc2)c(=O)n(CC(=O)Nc2ccc(Br)cc2)n1 [Compound 9]	Active	19 ± 3.6 µM	exhibiting cytotoxicity	> 50 µM			
0.6 ± 0.1 µM	30.7 ± 1.8 µM	COc1cccc(Cc2cc(C)nn(C(C)C(=O)Nc3ccc(Br)cc3)c2=O)c1 (stereo not shown) [Compound 84, N-(4-bromophenyl)-2-[5-(3-methoxybenzyl)-3-methyl-6-oxopyridazin-1(6H)-yl]-propanamide]		> 50 µM		> 50 µM	cardioprotection effect	no effect	induce endothelium-independent relaxation
